From publication PMC12221989, “One-carbon homologation of alkenes” (Nature, 2025)

Tests used:
T cell proliferation = conditions: Fig. 1a; cited from earlier work
Excerpt: Fig. 1 Evolution of a strategy for one-carbon alkene homologation. a, The effect of homologues on biological activity: side chain length compared with immunosuppressive activity in a family of natural products. b, Homologation processes for common functional groups. c, Generally adopted sequence for alkene homologation. d, Design plan for a catalytic one-carbon alkene homologation process. TEXT PRINTED IN THE PICTURE: (a) R = CH3 FK-523 (FR-900523): T cell proliferation IC50 (nM): 2.72 | (a) R = CH2CH3 FK-520 (ascomycin): T cell proliferation IC50 (nM): 0.69 | (a) R = CH2CH2CH3: T cell prolife ...

in vitro = conditions: human
Description: Metabolic stability assay
Hepatic microsomal stability assays were conducted by Charles River Laboratories. Assays were performed in duplicate.
The stability of the test compound (1 µM) was measured following incubation at 37 °C with […] (0.5 mg protein/mL) in the presence of the cofactor, NADPH.
Incubates were prepared in duplicate, with aliquots removed at 0, 5, 10, 20 and 40 minutes and reactions terminated, and the compound was extracted by the addition of solvent. The disappearance of the parent compound was be monitored by LC-MS/MS and the half-life determined over the time-course of incubation. The half-life value was used to calculate the in vitro intrinsic clearance expressed as µL/min/mg protein.
Table S11. Metabolic Stability Data
Half- Half- Half- Clint Clint Mean Clint
Compound Cofactor life life Life (uL/min/mg (uL/min/mg (uL/min/mg Species (min) (min) (min) protn) n=1 protn) n=2 protn) (results)

[1] = test system: calcineurin in the presence of Cyclophilin A; test: Calcineurin inhibition assay (phosphatase activity in the presence of Cyclophilin A); format: biochemical; conditions: in vitro calcineurin phosphatase activity assay
Description: Calcineurin inhibition assay
Calcineurin inhibition assays were conducted by Eurofins Integrated Discovery UK Ltd (EID) to determine the effect of compounds on the activity of calcineurin in the presence of Cyclophilin A. Assays were performed in duplicate, with IC50 values calculated from mean […]
Compounds were diluted with and without immunophilin (CypA) in a 96-well plate. After addition of calcineurin/calmodulin complex, the plate was incubated at 30 °C for 10 minutes.
The addition of the RII phosphopeptide substrate initiated the reaction, and the plate was […]
The reaction was stopped by the addition of Malachite green reagent. The plate was incubated at room temperature to allow colour development (5 – 20 mins). After sufficient colour has developed, the absorbance is read at 620 nm. Blank subtracted absorbance readings are plotted against compound concentration to determine IC50 values or % inhibition at the top concentration.

Human Cyclophilin A = Human Cyclophilin A (Homo sapiens, UniProt P62937); test: PPIase TR-FRET competitive binding assay
Description: PPIase TR-FRET competitive binding assay
Cyclophilin A assays were conducted by Eurofins Integrated Discovery UK Ltd (EID) to determine the inhibitory activity of the analogues against the Human Cyclophilin A in a TR-FRET Competitive Binding assay. Assays were performed in duplicate, with Kd values calculated from mean averages. […]
binding to the CypA enzyme: the CypA enzyme, tagged with a polyhistidine sequence, forms a complex with an anti-6xHis antibody labelled with a fluorescent donor, F(d), and the enzyme […]
Compounds are diluted from DMSO stocks to 50-fold the final concentration and then in assay buffer to 2-fold the final assay plate concentration. An equal volume of compound is added to the master mix in the assay plate containing the enzyme/antibody/ligand complex, with a final concentration of detergent of 0.01%. This is incubated for 30 mins at room temperature and the plate read at 2 wavelengths (A and B) to detect emission from F(d) and F(a), respectively. The ratio B/A is calculated, blank subtracted and either expressed as a percentage of the ‘no inhibitor’ control or the blank subtracted values are plotted against the inhibitor concentration in Log10 Molar and fitted using one site Ki nonlinear regression to determine the Kd. Where possible, compound Kds are determined from duplicate data points. Each assay plate is set up with ‘no enzyme’ blanks and ‘no inhibitor’ controls, which are used to determine the Z’ value for each plate.

Chain of Human Cyclophilin A (P62937 whole entry): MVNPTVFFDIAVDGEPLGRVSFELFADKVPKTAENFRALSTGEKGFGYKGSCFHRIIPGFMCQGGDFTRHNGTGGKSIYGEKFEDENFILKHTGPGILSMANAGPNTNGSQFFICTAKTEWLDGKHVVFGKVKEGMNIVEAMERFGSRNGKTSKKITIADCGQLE

SMILES | IC50 (T cell proliferation) | Clint (uL/min/mg protn) n=1 (in vitro) | Clint (uL/min/mg protn) n=2 (in vitro) | Half-life (min) n=1 (in vitro) | Half-life (min) n=2 (in vitro) | Mean Clint (uL/min/mg protn) (in vitro) | also measured
C=CC[C@@H]1/C=C(\C)C[C@H](C)C[C@H](OC)[C@H]2O[C@@](O)(C(=O)C(=O)N3CCCC[C@H]3C(=O)O[C@H](/C(C)=C/[C@@H]3CC[C@@H](O)[C@H](OC)C3)[C@H](C)[C@@H](O)CC1=O)[C@H](C)C[C@@H]2OC [Tacrolimus, tacrolimus] | 0.18 nM |  |  |  |  |  | 
COc1ccc2c(c1)[C@]13CCCC[C@@H]1[C@H](C2)N(C)CC3 [Dextromethorphan, reference compound] |  | 29 | 29 | 49 min | 47 min | 29 | Half-Life (min) (Mean) (in vitro): 48 min
Cc1ncc2n1-c1ccc(Cl)cc1C(c1ccccc1F)=NC2 [Midazolam, reference compound] |  | 277 | 277 | 5 min | 5 min | 277 | Half-Life (min) (Mean) (in vitro): 5 min
CO[C@H]1C[C@@H](C)C/C(C)=C\[C@@H](C)C(=O)C[C@H](O)[C@@H](C)[C@@H](/C(C)=C/[C@@H]2CC[C@@H](O)[C@H](OC)C2)OC(=O)[C@@H]2CCCCN2C(=O)C(=O)[C@]2(O)O[C@H]1[C@@H](OC)C[C@H]2C [FK-523] | 2.72 nM |  |  |  |  |  | 
CC[C@@H]1NC(=O)[C@H]([C@H](O)[C@H](C)CC/C=C\F)N(C)C(=O)[C@H](C(C)C)N(C)C(=O)[C@H](CC(C)C)N(C)C(=O)[C@H](CC(C)C)N(C)C(=O)[C@@H](C)NC(=O)[C@H](C)NC(=O)[C@H](CC(C)C)N(C)C(=O)[C@H](C(C)C)NC(=O)[C@H](CC(C)C)N(C)C(=O)CN(C)C1=O [compound 24] |  | 48 uL/min/mg protn | 53 uL/min/mg protn | 29 min | 26 min | 51 uL/min/mg protn | decrease in phosphatase activity compared with cyclosporine A [1]: 10 fold
[2H]C([2H])([2H])/C=C/CC[C@@H](C)[C@@H](O)[C@H]1C(=O)N[C@@H](CC)C(=O)N(C)CC(=O)N(C)[C@@H](CC(C)C)C(=O)N[C@@H](C(C)C)C(=O)N(C)[C@@H](CC(C)C)C(=O)N[C@@H](C)C(=O)N[C@H](C)C(=O)N(C)[C@@H](CC(C)C)C(=O)N(C)[C@@H](CC(C)C)C(=O)N(C)[C@@H](C(C)C)C(=O)N1C [compound 23] |  | 44 uL/min/mg protn | 45 uL/min/mg protn | 32 min | 31 min | 44 uL/min/mg protn | Kd (Human Cyclophilin A): 45.9 nM; half-life at 1 µM (in vitro; both, liver microsomes): 31 min
CCCC1C=C(C)CC(C)CC(OC)C2OC(O)(C(=O)C(=O)N3CCCCC3C(=O)OC(C(C)=CC3CCC(O)C(OC)C3)C(C)C(O)CC1=O)C(C)CC2OC (stereo not shown) [R = CH2CH2CH3] | 0.93 nM |  |  |  |  |  | 
CC[C@@H]1/C=C(\C)C[C@H](C)C[C@H](OC)[C@H]2O[C@@](O)(C(=O)C(=O)N3CCCC[C@H]3C(=O)O[C@H](/C(C)=C/[C@@H]3CC[C@@H](O)[C@H](OC)C3)[C@H](C)[C@@H](O)CC1=O)[C@H](C)C[C@@H]2OC [FK-520, ascomycin] | 0.69 nM |  |  |  |  |  | 
C=CCCC[C@@H](C)[C@@H](O)[C@H]1C(=O)N[C@@H](CC)C(=O)N(C)CC(=O)N(C)[C@@H](CC(C)C)C(=O)N[C@@H](C(C)C)C(=O)N(C)[C@@H](CC(C)C)C(=O)N[C@@H](C)C(=O)N[C@H](C)C(=O)N(C)[C@@H](CC(C)C)C(=O)N(C)[C@@H](CC(C)C)C(=O)N(C)[C@@H](C(C)C)C(=O)N1C [compound 26, homoisocyclosporine A] |  | 69 uL/min/mg protn | 65 uL/min/mg protn |  |  | 67 uL/min/mg protn | calcineurin inhibition compared with cyclosporine A (in words) [1]: restored calcineurin inhibition to levels comparable with those of cyclosporine A; Kd (Human Cyclophilin A): 10.2 nM
